Values after ≈ are worked out from the molar mass of the structure shown. Where two headings read alike, the source gives them in different places.
Tests used:
S. aureus = assay: Comparison of MIC and MBC (Tables 5 and 6); type: cell-based; details: S. aureus, 31 strains; for MBC range: in µg/mL (unit assumed)
Text: (§1) […]. […] […]

Klebsiella pneumoniae = assay: Comparison of MIC and MBC (Tables 5 and 6); type: cell-based
Text: as §1

Escherichia coli = assay: Comparison of MIC and MBC (Tables 5 and 6); type: cell-based
Text: as §1

Pseudomonas sp. = assay: Comparison of MIC and MBC (Tables 5 and 6); type: cell-based; details: Pseudomonas sp.
Text: as §1

Shigella = assay: Comparison of MIC and MBC (Tables 5 and 6); type: cell-based
Text: as §1

[1] = guinea pig, in vivo
[2] = Nephrotoxicity to rat after i.m. administration; details: gentamicin at 150 MKD and 100 MKD from seventh day
[3] = Ototoxicity to guinea pig: cochleatoxicity
[4] = clinical use; cited from earlier work
[5] = Table 6, 20 strains, read-out: MBC90
[6] = Table 6, 20 strains, read-out: MBC range
[7] = Table 5, 20 strains, unit assumed
[8] = Table 6, 20 strains, in µg/mL (unit assumed)
[9] = Table 6, 20 strains, unit assumed
[10] = Table 5, number 2, unit assumed
[11] = Table 5, 10 strains, unit assumed

NCC[C@H](O)C(=O)N[C@@H]1C[C@H](N)[C@@H](O[C@H]2O[C@H](CN)[C@@H](O)[C@H](O)[C@H]2O)[C@H](O)[C@H]1O[C@H]1O[C@H](CO)[C@@H](O)[C@H](N)[C@H]1O [Amikacin]
MBC (S. aureus; Staphylococcus aureus, Table 6, read-out: MBC90): 32 µg/mL (≈ 54.6 µM) | MBC range (S. aureus; Table 6): 0.125-128 | MBC (Klebsiella pneumoniae; [5]): 1 µg/mL (≈ 1.71 µM) | MBC (Klebsiella pneumoniae; [6]): 0.125 to 2 µg/mL (≈ 0.213 to 3.42 µM) | MBC (Escherichia coli; [5]): 2 µg/mL (≈ 3.42 µM) | MBC (Escherichia coli; [6]): 0.25 to 8 µg/mL (≈ 0.427 to 13.7 µM) | MBC (Pseudomonas sp.; [5]): 64 µg/mL (≈ 109 µM) | MBC (Pseudomonas sp.; [6]): 1 to 64 µg/mL (≈ 1.71 to 109 µM) | MBC (Shigella; Table 6, 10 strains, read-out: MBC90): 0.5 µg/mL (≈ 0.854 µM) | MBC (Shigella; Table 6, 10 strains, read-out: MBC range): 0.25 to 1 µg/mL (≈ 0.427 to 1.71 µM) | ABR threshold [1]: increases of ABR threshold were observed | auditory function [1]: nearly all the auditory function of the animals were lost | dead animals [2]: no dead

Gentamicin
hair cell morphology ([3]; high dosage): large number of necrotized hair cell, even stand cell and nerve cell were observed | auditory function ([3]; high dosages): nearly all the auditory function of the animals were lost | hair cell morphology ([3]; low and middle dosages): scattered necrotized hair cell and scar formation were observed | ABR threshold ([3]; middle dosages): increases of ABR threshold were observed | MBC50 (S. aureus; Table 5, unit assumed): 0.5 µg/mL | MBC90 (S. aureus; Table 5, unit assumed): 2 µg/mL | MIC50 (S. aureus; Table 5, unit assumed): 0.125 µg/mL | MIC90 (S. aureus; Table 5, unit assumed): 0.5 µg/mL | MBC range (S. aureus; Table 6): 0.062 | MBC90 (S. aureus; Table 6, unit assumed): 2 µg/mL | MBC50 (Klebsiella pneumoniae; [7]): 0.25 µg/mL | MBC90 (Klebsiella pneumoniae; [7]): 1 µg/mL | MIC50 (Klebsiella pneumoniae; [7]): 0.125 µg/mL | MIC90 (Klebsiella pneumoniae; [7]): 0.25 µg/mL | MBC range (Klebsiella pneumoniae; [8]): 0.062-2 | MBC90 (Klebsiella pneumoniae; [9]): 1 µg/mL | MBC50 (Escherichia coli; [7]): 0.5 µg/mL | MBC90 (Escherichia coli; [7]): 1 µg/mL | MIC50 (Escherichia coli; [7]): 0.125 µg/mL | MIC90 (Escherichia coli; [7]): 0.25 µg/mL | MBC range (Escherichia coli; [8]): 0.125-8 | MBC90 (Escherichia coli; [9]): 1 µg/mL | MBC50 (Pseudomonas sp.; [10]): 2 µg/mL | MBC90 (Pseudomonas sp.; [10]): 8 µg/mL | MIC50 (Pseudomonas sp.; [10]): 2 µg/mL | MIC90 (Pseudomonas sp.; [10]): 4 µg/mL | MBC range (Pseudomonas sp.; [8]): 0.5-16 | MBC90 (Pseudomonas sp.; [9]): 8 µg/mL | MBC50 (Shigella; [11]): 0.25 µg/mL | MBC90 (Shigella; [11]): 1 µg/mL | MIC90 (Shigella; [11]): 0.25 µg/mL | MBC range (Shigella; Table 6, 10 strains, in µg/mL (unit assumed)): 0.125-1 | MBC90 (Shigella; Table 6, 10 strains, unit assumed): 1 µg/mL | side-effects [4]: side-effects of ototoxicity and nephrotoxicity | dead animals [2]: gradually increased

Reference: patent US5814488A (priority 1993, dated 1998)
